# From patent US20240166683A1, “CHEMICAL TOOLS FOR RNA 3D STRUCTURE DETERMINATION IN VIVO” (UNIVERSITY OF SOUTHERN CALIFORNIA, priority 2022, published 2024)
# Tests used:
# [1] = test system: model RNA 1; experiment: In vitro crosslinking of model RNA 1 duplex, measured by polyacrylamide electrophoresis; format: biochemical; conditions: 100 mM activated dicarboxylic acid, 10 μM model RNA 1, MOPS pH 7.5, 4 h at room temperature, PAGE
# Procedure: All experiments were performed in triplicate.
# Source data are provided as a Source Data file.
# [2] = test system: HEK293 cells; experiment: In-cell SHARC crosslinking, recovery of crosslinked RNA fragments from DD2D gel; format: cell-based, human; conditions: HEK293 cells, 5, 12.5, or 25 mM DPI, RNase III fragmentation
# Procedure: SHARC-exo accurately measures static and dynamic spatial distances in RNA in cells. To test SHARC-exo, we first crosslinked HEK293 cells with DPI, fragmented RNA with RNase III, and isolated the crosslinked fragments using the DD2D gel method. We recovered 1-2% RNA fragments as crosslinked using 5, 12.5, or 25 mM DPI. We sequenced the SHARC-exo libraries and observed 3.3-14.5% of the reads are gapped, similar to PARIS. Crosslinked reads are highly reproducible at different DPI concentrations.
# In vivo crosslinking. Hela and HEK293T cells with 80% confluency in a 10 cm dish were washed twice with 1× phosphate-buffered saline (PBS). […]
# a, RNase R reduces arm length in PARIS-exo. b, RNase R trimming leads to enrichment of U at the 5th nucleotide from the 3′ end. c-e, An example of precise crosslink site identification using PARIS-exo. c, vertical lines indicate the 3′ ends (median) from PARIS and PARIS-exo reads. d, The PARIS-exo derived 3′ ends and crosslinking sites are mapped to the H79 and ES31 of human 28S secondary structure. e, cryo-EM structure of H79 and ES31 (PDB: 4V6X). f, HEK293 cells are crosslinked with DPI at different concentrations. […] The smear above the diagonal represents crosslinked RNA. h, Quantification of the recovery of crosslinked RNA fragments from the DD2D gel system (replicates n=9, 16 and 4 for the 3 conditions, respectively). […]
# [3] = Hydrolysis of the acylating reagent at physiological pH, measured by NMR; format: physicochemical
# Procedure: We activated a set of eight dicarboxylic acids with diverse linker lengths and chemical properties (FIG. 1e). The efficiency of crosslinking RNA 1 was measured by polyacrylamide electrophoresis (FIG. 1e). […] This can be potentially explained by the inductive effect of the beta oxygen that substantially increases the reactivity of the activated ester, making it more susceptible to hydrolysis.
# (§1) a, Minimal and maximal possible lengths between the crosslinked 2′ oxygen groups in RNA, estimated in PyMOL. Hydroxyl groups are represented by the green oxygen atoms. […] The three lanes represent triplicate experiments. c, Reaction scheme of hydrolysis reaction of DPI. d, Hydrolysis of DPI in phosphate buffer pH 7.4 analyzed by NMR spectroscopy over time. e, Formation of hydrolyzed DPI products over time. After ˜30 min all DPI has been hydrolyzed. f, Hydrolysis of ApA in 100 mM borate buffer pH 10.0 analyzed by NMR spectroscopy over time. g, Formation of hydrolyzed ApA products over time, based on quantification of panel f. […] The three lanes represent triplicate experiments. i, An increase in crosslink reversal (=decrease in crosslinked RNA) is observed at increased pH and temperature, based on quantification of gel pictures in panel h. […]
# [4] = Hydrolysis in borate buffer/DMSO at pH 10.0, monitored by 1H NMR; format: physicochemical
# Source text: Reversing 2′-hydroxyl crosslinking under mild alkaline conditions without RNA damage. Reversal of the crosslinks is necessary for subsequent sequence analysis. We hypothesized that the lower stability of the 2′-acylation products relative to the phosphodiester bonds could allow selective crosslink reversal without causing RNA chain breaks. To test this, we first analyzed the rate of phosphodiester cleavage in a model RNA dinucleotide ApA (FIG. 1f). We compared it to the methyl ester of dipicolinic acid 2 (FIG. 1g), a simple ester derivative of the SHARC reagent DPI. The two compounds were incubated in a 3:1 mixture of 100 mM borate buffer and DMSO at pH 10.0, and the stability was monitored over time by ^1H NMR (FIG. 1h). […] In contrast, compound 2 was fully hydrolyzed after ˜120 min, with a rate constant of 3.5*10^−4 (FIG. 1g). From this we concluded that the ˜1000-fold difference in rate constant should provide sufficient opportunity to selectively reverse the crosslinks under mild alkaline conditions without RNA damage.
# as §1
# [5] = 3:1 100 mM borate buffer/DMSO, pH 10.0, 5 mM starting concentration
smiles,measurement,setting,value
O=C(COCC(=O)n1ccnc1)n1ccnc1 [Activated diglycolic acid],crosslinking efficiency of RNA 1,[1],27%
O=C(CCCC(=O)n1ccnc1)n1ccnc1 [Activated glutaric acid],crosslinking efficiency of RNA 1,[1],94%
"O=C(c1cccc(C(=O)n2ccnc2)n1)n1ccnc1 [DPI, dipicolinic acid imidazolide]",RNA fragments recovered as crosslinked,[2],1-2%
same,time after which all DPI has been hydrolyzed,"[3]; phosphate buffer pH 7.4, NMR",~30 min
same,time after which 50% was hydrolyzed,"[3]; physiological pH 7.4, room temperature, NMR",5 min
"COC(=O)c1cccc(C(=O)OC)n1 [compound 2, methyl ester of dipicolinic acid]",rate constant of hydrolysis,[4]; [5],3.5*10^−4
same,time to full hydrolysis,[4]; [5],~120 min
same,"difference in rate constant, compound 2 vs ApA",[4]; pH 10.0,~1000 fold
